In assay [1] the target is T1, BuChE from equine serum (Equus caballus, UniProt P81908).
T1 construct: 12 U/ml BuChE from equine serum; from tissue; host or cells: equine serum
As to the kind of experiment: biochemical. As for the experimental part: (§1) Cholinesterase activity is determined using a modified colorimetric method first described by Ellman[40]. […] The stock was then further diluted by factors of ten to produce solutions of 1 mM, 100 µM, 10 µM, 1 µM, and 0.1 µM which corresponds to concentrations of 100 µM, 10 µM, 1 µM, 0.1 µM, and 0.01 µM in the final reaction mixture. The test concentrations were stored in the refrigerator until the day of the assay. Trisma HCl buffer (50 mM, adjusted to pH 8 with 2 N NaOH) was prepared as the buffer and used to prepare enzyme stock solution (22 U/ml for Electrophorus electricus AChE and 12 U/ml BuChE from equine serum), 15 mM acetylthiocholine iodide, 15 mM S-butyrylthiocholine iodide and 1.5 mM DTNB (Ellman’s reagent). The enzyme stock solution was stabilised with 1% bovine serum albumin and stored in aliquots at −80 °C. A clear, flat bottom 96 well plate was used to perform the experiments with each concentration performed in triplicate. Prior to the assay the background absorbance for each compound at the different test concentrations was measured and accounted for when reading the final absorbance. […] Following this, 30 µl of the substrate was added to each well simultaneously using a multi pipette. […] A one-sample t-test was performed on the data to test for statistical significance.

For assay [2], the target named is Electrophorus electricus AChE (Electrophorus electricus, UniProt O42275). As to the kind of experiment: biochemical. The following applies: for IC50: 25 °C, pH 8. On the procedure: as §1
For assay [3], the target named is T2, recombinant human MAO-A (Homo sapiens, UniProt P21397).
T2 sequence (P21397 1-527): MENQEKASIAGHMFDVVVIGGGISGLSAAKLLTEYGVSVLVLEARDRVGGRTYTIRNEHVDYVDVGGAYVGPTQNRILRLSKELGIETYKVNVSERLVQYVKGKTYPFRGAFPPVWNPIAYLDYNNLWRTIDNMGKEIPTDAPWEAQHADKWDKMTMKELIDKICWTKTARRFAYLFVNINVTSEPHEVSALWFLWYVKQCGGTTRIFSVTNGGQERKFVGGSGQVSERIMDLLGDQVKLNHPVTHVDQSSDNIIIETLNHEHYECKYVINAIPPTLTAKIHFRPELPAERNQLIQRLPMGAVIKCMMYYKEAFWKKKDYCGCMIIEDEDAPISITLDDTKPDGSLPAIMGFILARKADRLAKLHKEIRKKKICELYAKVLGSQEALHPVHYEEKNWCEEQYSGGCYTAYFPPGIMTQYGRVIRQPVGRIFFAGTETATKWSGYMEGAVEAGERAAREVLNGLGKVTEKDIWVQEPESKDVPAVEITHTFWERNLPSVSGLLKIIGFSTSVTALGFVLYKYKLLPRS
Put plainly: biochemical. The following applies: 37 °C. As for the experimental part:
The stock was then further diluted by factors of ten to produce solutions of 1 mM, 100 µM, 10 µM, 1 µM, and 0.1 µM which would correspond to concentrations of 100 µM, 10 µM, 1 µM, 0.1 µM, and 0.01 µM in the final reaction mixture. A potassium phosphate buffer ([…] 100 mM, pH 7.4, 0.9% w/v NaCl) was prepared and refrigerated until further use. The enzyme stock solutions were prepared by dissolving 2.5 mg of enzyme in 33.33 ml of phosphate buffer to produce stock solutions of 0.075 mg/ml which were stored in aliquots at −80 °C until use. Once in the final reaction mixture, this enzyme solution will have a concentration of 0.0075 mg/ml. […] The fresh substrate was prepared on the day of the assay. The assay was carried out in 2 ml Eppendorf vials. […] Following this, 25 µl of the enzyme stock were added to each vial in 10 s intervals and the vials were incubated at 37 °C for 10 min. […] To stop the reaction at the end of this time 150 hx00B5;l of 2 N NaOH was added and the mixture was shaken. Using a micropipette 80 hx00B5;l of the mixture was transferred to a well in a black 96 well plate. The plate was placed in the fluorescent plate reader and read at an excitation/emission wavelength of 310 nm/410 nm. Each assay was run in triplicate and the data were analysed with Graph Pad Prism 8 software (San Diego, USA).
The MAO inhibitory activity of the compounds was assessed using a fluorometric assay with recombinant human MAO-A and human MAO-B enzymes.

Assay [4] addresses recombinant human MAO-B (Homo sapiens, UniProt P27338). Put plainly: MAO-B fluorometric assay (kynuramine). The format is biochemical. Conditions: for IC50: kynuramine 30 µM, 37 °C, read-out: MAO-B IC50. On the procedure: . The stock was then further diluted by factors of ten to produce solutions of 1 mM, 100 µM, 10 µM, 1 µM, and 0.1 µM which would correspond to concentrations of 100 µM, 10 µM, 1 µM, 0.1 µM, and 0.01 µM in the final reaction mixture. A potassium phosphate buffer ([…] 100 mM, pH 7.4, 0.9% w/v NaCl) was prepared and refrigerated until further use. The enzyme stock solutions were prepared by dissolving 2.5 mg of enzyme in 33.33 ml of phosphate buffer to produce stock solutions of 0.075 mg/ml which were stored in aliquots at −80 °C until use. […]. The substrate was prepared by dissolving kynuramine in potassium buffer and was prepared as two separate concentrations; […]. The fresh substrate was prepared on the day of the assay. The assay was carried out in 2 ml Eppendorf vials. […] Following this, 25 µl of the enzyme stock were added to each vial in 10 s intervals and the vials were incubated at 37 °C for 10 min. After this time period 15 µl of kynuramine (750 µM for MAO-A and 500 µM for MAO-B) was added at 10 s intervals and further incubated for 20 min. To stop the reaction at the end of this time 150 hx00B5;l of 2 N NaOH was added and the mixture was shaken. Using a micropipette 80 hx00B5;l of the mixture was transferred to a well in a black 96 well plate. The plate was placed in the fluorescent plate reader and read at an excitation/emission wavelength of 310 nm/410 nm. Each assay was run in triplicate and the data were analysed with Graph Pad Prism 8 software (San Diego, USA).
The MAO inhibitory activity of the compounds was assessed using a fluorometric assay with recombinant human MAO-A and human MAO-B enzymes. […].

Setting [5] is: Ellman method, 25 °C, pH 8, read-out: BuChE IC50.
Where [6] appears, read: Ellman method, read-out: AChE IC50.
The mark [7] stands for this setting: kynuramine 45 µM, read-out: MAO-A IC50.

“And” between values parts separate entries of the source, which are not always exact repeats. Equal entries are not always repeated. Where two headings read alike, the source gives them in different places.

T1 sequence (P81908 whole entry): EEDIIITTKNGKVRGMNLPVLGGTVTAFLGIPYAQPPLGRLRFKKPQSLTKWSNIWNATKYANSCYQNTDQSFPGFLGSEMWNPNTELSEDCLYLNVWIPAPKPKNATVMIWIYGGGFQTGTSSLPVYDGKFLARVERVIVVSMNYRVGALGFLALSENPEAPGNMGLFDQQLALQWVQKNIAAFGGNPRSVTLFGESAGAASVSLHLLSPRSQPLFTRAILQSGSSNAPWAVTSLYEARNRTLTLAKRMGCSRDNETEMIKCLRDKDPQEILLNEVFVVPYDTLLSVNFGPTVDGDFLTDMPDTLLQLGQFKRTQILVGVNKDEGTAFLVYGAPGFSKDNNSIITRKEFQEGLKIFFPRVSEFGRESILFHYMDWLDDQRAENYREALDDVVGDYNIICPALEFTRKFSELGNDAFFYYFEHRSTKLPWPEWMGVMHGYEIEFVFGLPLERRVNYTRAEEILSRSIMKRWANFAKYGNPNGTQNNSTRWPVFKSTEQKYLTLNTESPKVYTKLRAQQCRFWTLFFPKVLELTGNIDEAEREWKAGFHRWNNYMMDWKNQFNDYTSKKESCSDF
Chain of Electrophorus electricus AChE (O42275 24-633): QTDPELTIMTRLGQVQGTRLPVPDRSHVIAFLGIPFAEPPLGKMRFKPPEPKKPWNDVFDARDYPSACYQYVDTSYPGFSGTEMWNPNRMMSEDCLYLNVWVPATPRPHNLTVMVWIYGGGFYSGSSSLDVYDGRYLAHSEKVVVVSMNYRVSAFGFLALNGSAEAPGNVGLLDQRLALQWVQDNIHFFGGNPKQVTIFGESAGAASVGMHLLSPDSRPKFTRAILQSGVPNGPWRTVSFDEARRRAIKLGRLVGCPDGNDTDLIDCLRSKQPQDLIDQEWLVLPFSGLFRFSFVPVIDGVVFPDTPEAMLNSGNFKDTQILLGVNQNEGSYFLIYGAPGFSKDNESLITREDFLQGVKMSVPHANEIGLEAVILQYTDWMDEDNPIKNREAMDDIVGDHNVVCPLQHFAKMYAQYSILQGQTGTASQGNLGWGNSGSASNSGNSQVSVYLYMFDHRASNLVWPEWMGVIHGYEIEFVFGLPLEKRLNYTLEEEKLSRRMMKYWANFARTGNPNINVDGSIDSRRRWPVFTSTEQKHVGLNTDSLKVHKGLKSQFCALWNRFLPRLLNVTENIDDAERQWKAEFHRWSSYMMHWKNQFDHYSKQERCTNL
Chain of recombinant human MAO-B (P27338 whole entry): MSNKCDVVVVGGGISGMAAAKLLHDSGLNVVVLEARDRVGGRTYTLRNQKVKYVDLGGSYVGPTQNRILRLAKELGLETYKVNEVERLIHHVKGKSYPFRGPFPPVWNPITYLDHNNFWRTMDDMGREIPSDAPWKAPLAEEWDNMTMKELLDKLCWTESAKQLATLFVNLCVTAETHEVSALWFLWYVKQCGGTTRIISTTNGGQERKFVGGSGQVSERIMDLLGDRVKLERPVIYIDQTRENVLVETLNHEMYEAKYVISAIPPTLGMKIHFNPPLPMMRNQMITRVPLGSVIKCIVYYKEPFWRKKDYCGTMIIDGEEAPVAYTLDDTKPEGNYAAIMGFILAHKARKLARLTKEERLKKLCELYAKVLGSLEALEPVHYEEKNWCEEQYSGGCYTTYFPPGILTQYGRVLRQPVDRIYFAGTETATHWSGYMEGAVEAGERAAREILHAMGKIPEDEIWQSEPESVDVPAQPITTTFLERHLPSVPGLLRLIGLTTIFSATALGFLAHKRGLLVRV

Regarding `O=c1oc2cc(OCCc3ccccc3)ccc2cc1CBr` [Compound 4, 3-(bromomethyl)-7-(2-phenylethoxy)-2H-1-benzopyran-2-one], the IC50 in assay [1] (setting [5]) was over 100 µM; in assay [2] (setting [6]), over 100 µM; in assay [3] (setting [7]), 0.48 µM and 0.476 µM; in assay [4], over 100 µM.

`CCN(CC)C(=O)Oc1ccc2cc(CBr)c(=O)oc2c1` [Compound 5, 3-(bromomethyl)-2-oxo-2H-1-benzopyran-7-yl-diethylcarbamate]: the IC50 was 23.3 µM in assay [1] (setting [5]); ~108 µM and 108 µM in assay [2] (setting [6]); 0.36 µM and 0.355 µM in assay [3] (setting [7]); 0.333 µM in assay [4]. Moreover, the inhibition at 100 µM in assay [2] (at 100 µM, read-out: AChE enzyme inhibition) worked out at 49%. The “SI MAO-B (MAO-B selectivity index = IC50(MAO-A)/IC50(MAO-B))” value in assay [4] came to 1.05.

With `C#CCNCc1cc2ccc(OCCc3ccccc3)cc2oc1=O` [Compound 6, 7-(2-phenylethoxy)-3-{[(prop-2-yn-1-yl)amino]methyl}-2H-1-benzopyran-2-one], the IC50 in assay [1] (setting [5]) was over 100 µM; in assay [2] (setting [6]) it was over 100 µM; in assay [3] (setting [7]) it was 3.86 µM; in assay [4], 0.029 µM. Also, in assay [4], the “SI MAO-B (MAO-B selectivity index = IC50(MAO-A)/IC50(MAO-B))” value is 133.2.

In the case of `C#CCNCc1cc2ccc(OC(=O)N(CC)CC)cc2oc1=O` [Compound 7, 2-oxo-3-{[(prop-2-yn-1-yl)amino]methyl}-2H-1-benzopyran-7-yl-diethylcarbamate], the IC50 in assay [1] was over 100 µM; in assay [2] (AChE IC50, Ellman method), over 100 µM; in assay [3] (MAO-A IC50, kynuramine 45 µM) it was 20.8 µM; in assay [4], 0.101 µM. In assay [4], the “SI MAO-B (MAO-B selectivity index = IC50(MAO-A)/IC50(MAO-B))” value worked out at 205.9.

By IC50 is commonly meant the concentration that gives 50% inhibition. The inhibition is the change of the read-out against control, counted positive when it falls.

The values above are taken from publication PMC8291583, “Design, synthesis, and evaluation of 3,7-substituted coumarin derivatives as multifunctional Alzheimer’s disease agents” (Journal of Enzyme Inhibition and Medicinal Chemistry, 2021).
